Measurements reported in patent US9877999B2, “Methods for treating metastatic stage prostate cancer” (Ferring International SA, priority 2008, dated 2018).
“And” between values parts separate entries of the source, which are not always exact repeats. Identical values can stand only once.

Columns and labels:
Type in all cases: in vivo, human
[1] = test system: prostate-specific antigen (PSA); experiment: Serum PSA level change in prostate cancer patients (clinical study CS21); settings: leuprolide 7.5 mg patients who did not receive anti-androgen therapy
Description: All secondary efficacy endpoints were analyzed for both the ITT and PP analysis sets, unless otherwise stated. The proportion of patients with testosterone surge during the first 2 weeks of treatment was analyzed using Fisher's exact test. […] The percentage change in PSA from baseline to day 28 endpoint was analyzed by a Wilcoxon test.

luteinizing hormone (LH) = experiment: Serum LH levels over time (clinical study CS21); settings: leuprolide 7.5 mg group
Description: (§1) The study also investigated whether degarelix is safe and effective with respect to achieving and maintaining testosterone suppression to castrate levels, evaluated as the proportion of patients with testosterone suppression ≦0.5 ng/mL during 12 months of treatment. […] The study also evaluated the pharmacokinetics of the degarelix dosing regimens investigated. Finally, the study examined the effects of using the degarelix treatment on patients suffering from different stages of cancer.
(§2) Patients in two treatment groups received a degarelix starting dose of 240 mg at a concentration of 40 mg/mL (240@40) on day 0 administered as two equivalent subcutaneous (s.c.) injections of 120 mg each. Thereafter, patients received 12 additional single s.c. degarelix doses of either 80 mg at a concentration of 20 mg/mL (80@20: degarelix 240/80 mg group) or 160 mg at a concentration of 40 mg/mL (160@40: degarelix 240/160 mg group) administered s.c. every 28 days.
(§3) The secondary efficacy endpoints were: the proportion of patients with testosterone surge during the first 2 weeks of treatment; the proportion of patients with testosterone level ≦0.5 ng/mL at day 3; the percentage change in PSA from baseline to day 28; the probability of testosterone ≦0.5 ng/mL from day 56 through day 364; the levels of serum testosterone, LH, FSH and PSA over time through the study; the time to PSA failure, defined as two consecutive increases of 50%, and at least 5 ng/mL as compared to nadir; degarelix concentration over the first month and trough levels at day 308 and 336; the frequency and size of testosterone increases at day 255 and/or 259 compared to the testosterone level at day 252; the quality of life on days 0, 28, 84, 168 and end of study visit; the frequency and intensity of hot flushes experienced (scored daily from study start until end of study visit). In addition, two further secondary endpoints were added: the probability of sufficient testosterone response from day 28 through day 364 (a patient was considered to have insufficient testosterone response if they had one testosterone value >1.0 ng/mL or two consecutive testosterone values >0.5 ng/mL at day 28 onwards); and the percentage change in PSA from baseline to day 14.

testosterone = settings: leuprolide 7.5 mg group
Description: The study also evaluated the pharmacokinetics of the degarelix dosing regimens investigated. Finally, the study examined the effects of using the degarelix treatment on patients suffering from different stages of cancer. […] The primary efficacy endpoint was the probability of testosterone levels remaining ≦0.5 ng/mL from day 28 through day 364. […] The primary efficacy endpoint was analyzed for both the ITT and PP analysis sets, with the ITT analysis set considered primary. The primary efficacy endpoint was analyzed using the Kaplan Meier method. For each of the three treatment groups, testosterone response rates with 95% confidence interval (CI) were calculated by log-log transformation of survivor function. […] All secondary efficacy endpoints were analyzed for both the ITT and PP analysis sets, unless otherwise stated. […] The percentage change in PSA from baseline to day 28 endpoint was analyzed by a Wilcoxon test.

[2] = test system: serum alkaline phosphatase (S-ALP); experiment: S-ALP analysis in prostate cancer patients (clinical study CS21); settings: Leuprolide 7.5 mg
Description: Patients with histologically confirmed adenocarcinoma of the prostate (all stages), for whom androgen deprivation therapy was indicated were recruited. Baseline characteristics were well balanced between groups. Approximately half of patients had locally advanced (29.2%) or metastatic (20.5%) disease at baseline. […] Patients receiving leuprolide could also receive bicalutamide for clinical flare protection. The S-ALP levels were measured in each patient at various time points, by taking a blood sample and analyzing for S-ALP. S-ALP levels were measured using a standardized colorimetric assay based on the p-nitrophenyl phosphate AMP buffer method. The normal range for S-ALP is 44-147 IU/L. The S-ALP values in non-metastatic patients serve as controls. An ANOVA analysis with treatment and day as factors and baseline value as covariate was used to determine between treatment differences at Day 364. A repeated measures analysis (incorporating all time points from Day 112) with treatment and day as factors and baseline value as covariate was used to assess between treatment differences from Day 112 to Day 364.

[3] = test system: follicle stimulating hormone (FSH); experiment: Serum FSH levels over time (clinical study CS21); settings: leuprolide 7.5 mg group
Description: as §1, §2, §3

[4] = test system: prostate-specific antigen (PSA); experiment: PSA failure in prostate cancer patients (clinical study CS21); settings: for proportion of PSA failures: leuprolide 7.5 mg
Description: For this analysis, PSA failure (a secondary endpoint) was defined as two consecutive increases in PSA of 50% and 5 ng/mL compared with nadir. The time to PSA failure was defined as the number of days from first dosing to where an increase in serum PSA of 50% from nadir and 5 ng/mL, measured on two consecutive occasions at least two weeks apart, was noted. The second occasion was the time point of meeting the criterion. PSA failure rates were also analyzed by disease stage and baseline PSA level.
as §3
The secondary endpoints, probability of testosterone ≦0.5 ng/mL from day 56 through day 364, time to PSA failure, and probability of sufficient testosterone response from day 28 through day 364 were analyzed by the Kaplan-Meier method.

Structure (SMILES): CCNC(=O)[C@@H]1CCCN1C(=O)[C@H](CCCNC(=N)N)NC(=O)[C@H](CC(C)C)NC(=O)[C@@H](CC(C)C)NC(=O)[C@H](Cc1ccc(O)cc1)NC(=O)[C@H](CO)NC(=O)[C@H](Cc1c[nH]c2ccccc12)NC(=O)[C@H](Cc1c[nH]cn1)NC(=O)[C@@H]1CCC(=O)N1 [leuprolide, reference compound]
- PSA median percentage reduction from baseline ([1]; day 14): 15.3%
- PSA median percentage reduction from baseline ([1]; day 28): 61.7%
- median LH level (luteinizing hormone (LH); by day 56, remaining until day 364): 0.035 IU/L
- increase of median LH from baseline (luteinizing hormone (LH); day 1): > 400%
- median LH level, peak (luteinizing hormone (LH); day 1): 31.0 IU/L
- Kaplan-Meier estimate of the probability of testosterone ≦0.5 ng/mL from day 28 to day 364 (testosterone): 96.4%
- patients exhibiting testosterone suppression on day 3 (testosterone): no patients
- overall proportion of patients with testosterone ≦0.5 ng/mL from day 28 to day 364 (testosterone; observed cases analysis): 96.0%
- S-ALP mean change from baseline ([2]; Localized, Day 112): +5 IU/L
- S-ALP mean change from baseline ([2]; Localized, Day 224): +7 IU/L
- S-ALP mean change from baseline ([2]; Localized, Day 364): +9 IU/L
- S-ALP mean change from baseline ([2]; Locally advanced, Day 112): −1 IU/L
- S-ALP mean change from baseline ([2]; Locally advanced, Day 224): −1 IU/L
- S-ALP mean change from baseline ([2]; Locally advanced, Day 364): +6 IU/L
- S-ALP mean change from baseline ([2]; Metastatic (Hb < 130 g/L), Day 112): −30 IU/L
- S-ALP mean change from baseline ([2]; Metastatic (Hb < 130 g/L), Day 224): −70 IU/L
- S-ALP mean change from baseline ([2]; Metastatic (Hb < 130 g/L), Day 364): −10 IU/L
- S-ALP mean change from baseline ([2]; Metastatic, Day 112): −20 IU/L
- S-ALP mean change from baseline ([2]; Metastatic, Day 224): −50 IU/L
- S-ALP mean change from baseline ([2]; Metastatic, Day 364): 0 IU/L
- S-ALP mean change from baseline ([2]; baseline PSA 10-20 ng/mL, Day 112): +5 IU/L
- S-ALP mean change from baseline ([2]; baseline PSA 10-20 ng/mL, Day 224): +8 IU/L
- S-ALP mean change from baseline ([2]; baseline PSA 10-20 ng/mL, Day 364): +8 IU/L
- S-ALP mean change from baseline ([2]; baseline PSA 20-50 ng/mL, Day 112): +5 IU/L
- S-ALP mean change from baseline ([2]; baseline PSA 20-50 ng/mL, Day 224): +8.5 IU/L
- S-ALP mean change from baseline ([2]; baseline PSA 20-50 ng/mL, Day 364): +11 IU/L
- S-ALP mean change from baseline ([2]; baseline PSA < 10 ng/mL, Day 112): +4.5 IU/L
- S-ALP mean change from baseline ([2]; baseline PSA < 10 ng/mL, Day 224): +6 IU/L
- S-ALP mean change from baseline ([2]; baseline PSA < 10 ng/mL, Day 364): +7.5 IU/L
- S-ALP mean change from baseline ([2]; baseline PSA > 50 ng/mL, Day 112): −40 IU/L
- S-ALP mean change from baseline ([2]; baseline PSA > 50 ng/mL, Day 224): −60 IU/L
- S-ALP mean change from baseline ([2]; baseline PSA > 50 ng/mL, Day 364): +10 IU/L
- FSH level ([3]; by day 14): 2.0 IU/L
- FSH level, peak ([3]; day 1): 22.5 IU/L
- increase of FSH from baseline ([3]; day 1): 146%
- Median FSH plateau ([3]; from around day 56 until day 364): approximately 4.40 IU/L
- probability of completing the study without experiencing PSA failure by day 364 ([4]; leuprolide 7.5 mg group): 85.9% and ~85.8%
- proportion of PSA failures ([4]; patients with baseline PSA>50 ng/mL): 40.0%
- proportion of PSA failures ([4]; patients with metastatic disease at baseline): 36.2%
